Laboratory results: patent US20160130278A1 (TAISHO PHARMACEUTICAL CO., LTD, priority 2013, published 2016)

What follows are compounds tested against T1, human type 1 glycine transporter (GlyT1) (Homo sapiens, UniProt P48067) (assay: Glycine uptake inhibition experiment ([3H]glycine uptake)). Details: GlyT1.
T1 construct: T98G cells (glioma cells) expressing human type 1 glycine transporter (GlyT1) were used
T1 sequence (P48067 1-706): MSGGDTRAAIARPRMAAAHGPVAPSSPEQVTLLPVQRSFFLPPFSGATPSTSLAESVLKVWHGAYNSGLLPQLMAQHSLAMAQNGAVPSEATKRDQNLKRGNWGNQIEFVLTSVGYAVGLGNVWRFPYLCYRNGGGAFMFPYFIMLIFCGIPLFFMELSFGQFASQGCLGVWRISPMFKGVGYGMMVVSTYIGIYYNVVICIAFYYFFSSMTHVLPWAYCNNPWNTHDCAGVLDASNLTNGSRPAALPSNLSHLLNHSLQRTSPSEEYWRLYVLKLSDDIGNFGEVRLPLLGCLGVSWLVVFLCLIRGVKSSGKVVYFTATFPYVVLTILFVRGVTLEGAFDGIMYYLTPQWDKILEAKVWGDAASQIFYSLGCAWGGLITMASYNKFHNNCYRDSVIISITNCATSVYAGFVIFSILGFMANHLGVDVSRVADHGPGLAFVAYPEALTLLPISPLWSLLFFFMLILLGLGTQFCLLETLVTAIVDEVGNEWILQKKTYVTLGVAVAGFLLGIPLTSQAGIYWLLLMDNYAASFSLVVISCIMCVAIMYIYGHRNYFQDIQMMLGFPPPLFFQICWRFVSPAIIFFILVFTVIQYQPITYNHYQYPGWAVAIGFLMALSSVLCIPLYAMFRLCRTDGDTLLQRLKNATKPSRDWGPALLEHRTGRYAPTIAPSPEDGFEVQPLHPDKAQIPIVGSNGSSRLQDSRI
Type: cell-based
Procedure, shortened: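 T98G glioma cells expressing human GlyT1 were pretreated 10 min with compound in HEPES buffer pH 7.4 (0.2% BSA), then incubated with compound plus 250 nM final [3H]glycine for 15 min at room temperature. Intracellular radioactivity was counted after NaOH lysis; 10 μM ALX5407 defined non-specific uptake. IC50 came from 10^−9–10^−5 M curves.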

SMILES	IC50 [µM]
O=C(NC(c1cccc(Cl)n1)C1(O)CCC(F)(F)CC1)c1ccc(C(F)(F)F)nc1Cl (single isomer, unassigned) [Compound 356, 2-chloro-N-[(6-chloropyridin-2-yl)(4,4-difluoro-1-hydroxycyclohexyl)methyl]-6-(trifluoromethyl)pyridine-3-carboxamide]	0.25
O=C(NC(c1cccnc1Cl)C1(O)CCC(F)(F)CC1)c1cccc(C(F)(F)F)c1Cl (single isomer, unassigned) [Compound 357, 2-chloro-N-[(2-chloropyridin-3-yl)(4,4-difluoro-1-hydroxycyclohexyl)methyl]-3-(trifluoromethyl)benzamide]	0.33
O=C(NC(c1cccc(F)n1)C1(O)CCC(F)(F)CC1)c1nccc(C(F)(F)F)c1Cl (single isomer, unassigned) [Compound 358, 3-chloro-N-[(4,4-difluoro-1-hydroxycyclohexyl)(6-fluoropyridin-2-yl)methyl]-4-(trifluoromethyl)pyridine-2-carboxamide]	0.15
O=C(NC(c1cccc(F)n1)C1(O)CCC(F)(F)CC1)c1ccnc(C(F)(F)F)c1Cl (single isomer, unassigned) [Compound 359, 3-chloro-N-[(4,4-difluoro-1-hydroxycyclohexyl)(6-fluoropyridin-2-yl)methyl]-2-(trifluoromethyl)pyridine-4-carboxamide]	0.25
O=C(NC(c1cc(Cl)ccn1)C1(O)CCC(F)(F)CC1)c1cc(C(F)(F)F)cnc1Cl (single isomer, unassigned) [Compound 360, 2-chloro-N-[(4-chloropyridin-2-yl)(4,4-difluoro-1-hydroxycyclohexyl)methyl]-5-(trifluoromethyl)pyridine-3-carboxamide]	0.52
O=C(NC(c1ncccc1Cl)[C@]1(O)CC[C@@H](F)CC1)c1nccc(C(F)(F)F)c1Cl (single isomer, unassigned) [Compound 361, 3-chloro-N-[(3-chloropyridin-2-yl)(cis-4-fluoro-1-hydroxycyclohexyl)methyl]-4-(trifluoromethyl)pyridine-2-carboxamide]	0.3
O=C(NC(c1cccc(Cl)n1)[C@]1(O)CC[C@@H](F)CC1)c1cc(C(F)(F)F)ccc1Cl (single isomer, unassigned) [Compound 362]	0.19
O=C(NC(c1cccc(Cl)n1)[C@]1(O)CC[C@@H](F)CC1)c1ccc(C(F)(F)F)cc1Cl (single isomer, unassigned) [Compound 363, 2-chloro-N-[(6-chloropyridin-2-yl)(cis-4-fluoro-1-hydroxycyclohexyl)methyl]-4-(trifluoromethyl)benzamide]	0.24
O=C(NC(c1ccccc1Cl)[C@]1(O)CC[C@@H](F)CC1)c1cc(C(F)(F)F)ncc1Cl (single isomer, unassigned) [Compound 366, 5-chloro-N-[(2-chlorophenyl)(cis-4-fluoro-1-hydroxycyclohexyl)methyl]-2-(trifluoromethyl)pyridine-4-carboxamide]	0.32
O=C(NC(c1cc(F)ccc1Cl)[C@]1(O)CC[C@@H](F)CC1)c1nccc(C(F)(F)F)c1Cl (single isomer, unassigned) [Compound 374, 3-chloro-N-[(2-chloro-5-fluorophenyl)(cis-4-fluoro-1-hydroxycyclohexyl)methyl]-4-(trifluoromethyl)pyridine-2-carboxamide]	0.17
O=C(NC(c1cc(Cl)ccc1F)[C@]1(O)CC[C@@H](F)CC1)c1nccc(C(F)(F)F)c1Cl (single isomer, unassigned) [Compound 375, 3-chloro-N-[(5-chloro-2-fluroophenyl)(cis-4-fluoro-1-hydroxycyclohexyl)methyl]-4-(trifluoromethyl)pyridine-2-carboxamide]	0.25
O=C(NC(c1cc(Cl)ccc1F)[C@]1(O)CC[C@@H](F)CC1)c1ccnc(C(F)(F)F)c1Cl (single isomer, unassigned) [Compound 376, 3-chloro-N-[(5-chloro-2-fluorophenyl)(cis-4-fluoro-1-hydroxycyclohexyl)methyl]-2-(trifluoromethyl)pyridine-4-carboxamide]	0.55
O=C(NC(c1cc(Cl)ccc1F)[C@]1(O)CC[C@@H](F)CC1)c1cc(C(F)(F)F)ncc1Cl (single isomer, unassigned) [Compound 377, 5-chloro-N-[(5-chloro-2-fluorophenyl)(cis-4-fluoro-1-hydroxycyclohexyl)methyl]-2-(trifluoromethyl)pyridine-4-carboxamide]	0.92
O=C(NC(c1cc(Cl)ccc1F)[C@]1(O)CC[C@@H](F)CC1)c1cc(C(F)(F)F)cnc1Cl (single isomer, unassigned) [Compound 378, 2-chloro-N-[(5-chloro-2-fluroophenyl)(cis-4-fluoro-1-hydroxycyclohexyl)methyl]-5-(trifluoromethyl)pyridine-3-carboxamide]	2.3

More lines, now with the values ahead:

IC50 [µM]	SMILES
0.53	CS(=O)(=O)c1ccc(Cl)cc1C(=O)NC(c1cccc(F)c1Cl)[C@]1(O)CC[C@@H](F)CC1 (single isomer, unassigned) [Compound 364, 5-chloro-N-[(2-chloro-3-fluorophenyl)(cis-4-fluoro-1-hydroxycyclohexyl)methyl]-2-(methylsulfonyl)benzamide]
2.8	O=C(NC(c1cccc(F)c1Cl)[C@]1(O)CC[C@@H](F)CC1)c1ccccc1C1CC1 (single isomer, unassigned) [Compound 365, N-[(2-chloro-3-fluorophenyl)(cis-4-fluoro-1-hydroxycyclohexyl)methyl]-2-cyclopropylbenzamide]
0.38	O=C(NC(c1ccccc1Cl)[C@]1(O)CC[C@@H](F)CC1)c1cc(C(F)(F)F)cnc1Cl (single isomer, unassigned) [Compound 367, 2-chloro-N-[(2-chlorophenyl)(cis-4-fluoro-1-hydroxycyclohexyl)methyl]-5-(trifluoromethyl)pyridine-3-carboxamide]
0.76	O=C(NC(c1ccccc1Cl)[C@]1(O)CC[C@@H](F)CC1)c1ccc(C(F)(F)F)nc1Cl (single isomer, unassigned) [Compound 368, 2-chloro-N-[(2-chlorophenyl)(cis-4-fluoro-1-hydroxycyclohexyl)methyl]-6-(trifluoromethyl)pyridine-3-carboxamide]
1.2	O=C(NC(c1cccc(F)c1Cl)[C@]1(O)CC[C@@H](F)CC1)c1cnc(Cl)cc1-n1nccn1 (single isomer, unassigned) [Compound 369, 6-chloro-N-[(2-chloro-3-fluorophenyl)(cis-4-fluoro-1-hydroxycyclohexyl)methyl]-4-(2H-1,2,3-triazol-2-yl)pyridine-3-carboxamide]
3	O=C(NC(c1cccc(F)c1Cl)[C@]1(O)CC[C@@H](F)CC1)c1ccc(Cl)nc1-n1nccn1 (single isomer, unassigned) [Compound 370, 6-chloro-N-[(2-chloro-3-fluorophenyl)(cis-4-fluoro-1-hydroxycyclohexyl)methyl]-2-(2H-1,2,3-triazol-2-yl)pyridine-3-carboxamide]
1.6	O=C(NC(c1cccc(F)c1Cl)[C@]1(O)CC[C@@H](F)CC1)c1ncc(Cl)cc1-n1nccn1 (single isomer, unassigned) [Compound 371, 5-chloro-N-[(2-chloro-3-fluorophenyl)(cis-4-fluoro-1-hydroxycyclohexyl)methyl]-3-(2H-1,2,3-triazol-2-yl)pyridine-2-carboxamide]
0.041	CS(=O)(=O)c1ccc(C(F)(F)F)cc1C(=O)NC(c1cccc(F)c1Cl)[C@]1(O)CC[C@@H](F)CC1 (single isomer, unassigned) [Compound 372, N-[(2-chloro-3-fluorophenyl)(cis-4-fluoro-1-hydroxycyclohexyl)methyl]-2-(methylsulfonyl)-5-(trifluoromethyl)benzamide]
0.1	CS(=O)(=O)c1cc(C(F)(F)F)ccc1C(=O)NC(c1cccc(F)c1Cl)[C@]1(O)CC[C@@H](F)CC1 (single isomer, unassigned) [Compound 373, N-[(2-chloro-3-fluorophenyl)(cis-4-fluoro-1-hydroxycyclohexyl)methyl]-2-(methylsulfonyl)-4-(trifluoromethyl)benzamide]
0.79	O=C(NC(c1cccc(F)c1Cl)[C@]1(O)CC[C@@H](F)CC1)c1cccc(C(F)(F)F)c1-n1nccn1 (single isomer, unassigned) [Compound 379, N-[(2-chloro-3-fluorophenyl)(cis-4-fluoro-1-hydroxycyclohexyl)methyl]-2-(2H-1,2,3-triazol-2-yl)-3-(trifluoromethyl)benzamide]
0.27	O=C(NC(c1cccc(F)c1Cl)[C@]1(O)CC[C@@H](F)CC1)c1ccc(C(F)(F)F)cc1-n1nccn1 (single isomer, unassigned) [Compound 380, N-[(2-chloro-3-fluorophenyl)(cis-4-fluoro-1-hydroxycyclohexyl)methyl]-2-(2H-1,2,3-triazol-2-yl)-4-(trifluoromethyl)benzamide]
